From paper PMC8069289 (Molecules, 2021)
Entries after “also recorded” stand apart in the source; their conditions may differ. Marks after values point to notes of the source that are not given here.

Experiments:
HL-60 cells [1] = assay: Alkaline SCGE (comet assay), Tail Moment; assay type: cell-based, human; conditions: HL-60, 5 h
Description: DNA integrity was assayed by SCGE as described by Olive and Banáth with minor modifications. […] After treatment, cells were washed twice and adjusted to 6.25 × 10^5 cells/mL in PBS. Electrophoresis gels were prepared pouring a 1:4 dilution (cells in liquid low-melting-point agarose at 40 °C, […], Sigma) into slides. Gels were covered with a coverslip and allowed to solidify at RT for 30 min. Once the slides solidified, the coverslips were carefully removed and slides were bathed in freshly prepared lysing solution (2.5 M NaCl, 100 mM Na-EDTA, 10 mM Tris, 250 mM NaOH, 10% DMSO and 1% Triton X-100; pH = 13) for 1 h at 4 °C. Thereafter, slides were equilibrated in alkaline electrophoresis buffer (300 mM NaOH and 1 mM Na-EDTA, pH = 13) for 20-30 min at 4 °C. Once equilibrated, the slides were underwent electrophoresis (12 V, 400 mA for 8 min) in the dark and were immediately neutralized in cold neutral solution (0.4 M Tris-HCl buffer, pH 7.5) for 10 min. […] Gels were stained with 7 μL propidium iodide and photographed in a DM2500 microscope (Leica Microsystems GmBH, Wetzlar, Germany) at 400× magnification. […] A one-way ANOVA and post-hoc Tukey's test with SPSS Statistics for Windows, Version 19.0 (2010, IBM Corporation, Armonk, NY, USA) was applied to determine the effect of the tested compounds on HL-60 cell DNA integrity from the analyses of Tail Moment (TM) data.

calf thymus DNA = test system: calf thymus DNA; set-up: method as in PMID 11787620; conditions: 5–20 mM TAU; cited from earlier work
CHO cells = test system: CHO cells; set-up: method as in PMID 7588651; conditions: 1 mM TAU; cited from earlier work
Drosophila = conditions: cited from earlier work
HL-60 cells [2] = assay: Internucleosomal DNA fragmentation; assay type: cell-based, human; conditions: HL-60, 5 h, all tested concentrations
Description: DNA fragmentation induction was determined as described by Anter et al. (2014). […] After treatment, genomic DNA was extracted using a commercial kit (Blood Genomic DNA Extraction Mini Spin Kit, Canvax Biotech, Córdoba, Spain). Then, DNA was incubated overnight with RNase at 37 °C and quantified in a spectrophotometer (Nanodrop® ND-1000, NanoDrop Technologies, Inc., Wilmington, DE, USA). Finally, 1200 ng DNA were electrophoresed in a 2% agarose gel for 120 min at 50 V, stained with ethidium bromide and visualized under UV light. The apoptosis process is recognised by the appearance of internucleosomal DNA fragments that are multiple of 200 base pairs.

Drosophila melanogaster [3] = assay: Genotoxicity, wing spot test (SMART); conditions: simple treatment; for Large Simple Spots (>2 Cells) m = 5 / Small Single Spots (1–2 Cells) m = 2 / Total Spots m = 2: No. of spots in parentheses
Description: The wing spot test was performed to evaluate genotoxicity assays following the standard procedure [14]. Briefly, trans-heterozygous larvae for mwh and flr^3 genes were obtained by crossing four day-old virgin flr^3 females with mwh males in a 2:1 ratio. Four days after fertilization, females were allowed to lay eggs in fresh yeast medium (25 g yeast and 4 mL sterile distilled water) for 8 h in order to obtain synchronized larvae. After 72 h, larvae were collected, washed with distilled water, and clustered in groups of 100 individuals. […] Adult flies were collected and stored in 70% ethanol until the wings were removed and mounted on slides using Faure’s solution. Mutant spots were assessed in both dorsal and ventral surfaces of the wings in a bright light microscope at 400× magnification. The frequencies of each type of mutant clone per wing (single, large or twin spot) were compared with the concurrent negative control [43]. All inconclusive and positive results (p > 0.05) were analysed with the nonparametric U-test of Mann, Whitney and Wilcoxon (α = β = 0.05).

[4] = test system: human umbilical endothelial cells; conditions: 30 mM GLU; cited from earlier work
Drosophila melanogaster [5] = assay: Toxicity assay, survival of larvae to adults (simple treatment)
Description: Toxicity was assayed according to our standard protocols. […] Tested groups consisted of larvae fed with Drosophila Instant Medium (Formula 4–24, Carolina Biological Supply, Burlington, NC, USA) supplemented with the assessed compounds concentrations. Emerging adults of all groups were counted and toxicity was determined as the percentage of hatched individuals in each treatment compared with the negative control.

[6] = test system: Alu M1 repetitive sequences of HL-60 cells; assay: Methylation status by qMSP, Alu M1; assay type: cell-based, human; conditions: HL-60, 5 h, 11 mM GLU
Description: Then, DNA was extracted similarly to previously described DNA fragmentation assay. After that, the DNA was converted with bisulphite (EZ DNA Methylation-Gold™ Kit, Zymo Research, Irvine, CA, USA). Bisulphite-modified DNA was used for fluorescence-based real-time quantitative Methylation-Specific PCR (qMSP) using 5 µM of each forward and reverse primer (Isogen Life Science BV, Utrecht, The Netherlands), 2 µL of iTaq™ Universal SYBR® Green Supermix (Bio-Rad Laboratories, Inc., Hercules, CA, USA); it contains antibody-mediated hot-start iTaq DNA polymerase, dNTPs, MgCl2, SYBR® Green I dye, enhancers, stabilizers and a blend of passive reference dyes including ROX and fluorescein) and 25 ng of bisulphite converted genomic DNA.
PCR conditions included initial denaturalisation at 95 °C for 3 min and amplification which consisted of 45 cycles at 95 °C for 10 s, 60 °C for 15 s and 72 °C for 15 s, taking picture at the end of each elongation cycle. After that, melting curve was determined increasing 0.5 °C each 0.05 s from 60 °C to 95 °C and taking pictures.
QMSP was carried out in 48 well plates in MiniOpticon Real-Time PCR System (MJ Mini Personal Thermal Cycler, Bio-Rad) and were analysed by Bio-Rad CFX Manager 3.1 Software. The housekeeping Alu-C4 was used as a reference to correct for total DNA input. […] Each sample was analysed in triplicate. […]

## NCCS(=O)(=O)O [TAU, 2-aminoethanesulfonic acid]
HL-60 cells [1]; 0.25 and 2 mM TAU
  TM versus concurrent control (DNA damage): significantly induce TM values higher than the concurrent control
HL-60 cells [1]; concentration not given
  Tail Moment (TM) of representative photograph: 2.49
Calf thymus DNA
  protection of DNA against oxidative damage: DNA-protected concentrations against oxidative damage
CHO cells
  induction of chromosome aberrations and sister chromatid exchanges: not able to induce neither chromosome aberrations nor sister chromatid exchanges
Drosophila; 1.6% TAU
  lifespan of Drosophila: decrease the lifespan
Drosophila; TAU 0.05 to 0.20 M
  adult lifespan of Drosophila: had no influence on adult lifespan
Drosophila; TAU 8–24 mM
  estimated mean values of survival: increased the estimated mean values of survival
HL-60 cells [2]
  internucleosomal DNA fragmentation (ladder pattern): did not induce DNA fragmentation
Drosophila melanogaster [3]; TAU 1 mM
  Twin Spots m = 5: 0 clones per wing
  Large Simple Spots (>2 Cells) m = 5: 0.08 (3) clones per wing
  Small Single Spots (1–2 Cells) m = 2: 0.027 (1) clones per wing
  Total Spots m = 2: 0.108 (4) clones per wing
Drosophila melanogaster [3]; TAU 32 mM
  Twin Spots m = 5: 0 clones per wing
  Large Simple Spots (>2 Cells) m = 5: 0.05 (2) clones per wing
  Small Single Spots (1–2 Cells) m = 2: 0.15 (6) clones per wing
  Total Spots m = 2: 0.2 (8) clones per wing

## OC[C@H]1OC(O)[C@H](O)[C@@H](O)[C@@H]1O (stereo partly shown) [GLU, Glucose]
[4]
  cytotoxicity: cytotoxicity was demonstrated
HL-60 cells [1]; three lowest concentrations of the cytotoxicity assay
  TM versus concurrent control (DNA damage): significantly induce TM values higher than the concurrent control
HL-60 cells [2]
  internucleosomal DNA fragmentation (ladder pattern): did not induce DNA fragmentation
Drosophila melanogaster [5]; GLU 2.7 mM
  Survival (%) Simple Treatment: 98%
Drosophila melanogaster [5]; GLU 11 mM
  Survival (%) Simple Treatment: 92.65%
Drosophila melanogaster [5]; GLU 21.86 mM
  Survival (%) Simple Treatment: 90.32%
Drosophila melanogaster [5]; GLU 87.5 mM
  Survival (%) Simple Treatment: 70.3 * %
Drosophila melanogaster [5]; GLU 350 mM
  Survival (%) Simple Treatment: 65 * %
[6]
  methylation status of Alu sequences: hypermethylated; also recorded: significantly increased
